From patent publication US10435405B2, “Pyrazolopyridine compounds and uses thereof” (Incyte Corporation, priority 2016, dated 2019)

target: HPK1 (Homo sapiens (Human), UniProt Q92918); test: HPK1 Kinase Binding Assay
Method in brief: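 This is a LanthaScreen tracer-binding format: a tracer 222/Eu-anti-GST antibody mix (18 nM and 4 nM solution) is added to active HPK1 (4 nM solution) with 3-fold, 11-point compound dilutions. Incubation is 1 h at 25 °C in HEPES pH 7.5 buffer before reading, and Ki is determined.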

HPK1, sequence (Q92918 1-346): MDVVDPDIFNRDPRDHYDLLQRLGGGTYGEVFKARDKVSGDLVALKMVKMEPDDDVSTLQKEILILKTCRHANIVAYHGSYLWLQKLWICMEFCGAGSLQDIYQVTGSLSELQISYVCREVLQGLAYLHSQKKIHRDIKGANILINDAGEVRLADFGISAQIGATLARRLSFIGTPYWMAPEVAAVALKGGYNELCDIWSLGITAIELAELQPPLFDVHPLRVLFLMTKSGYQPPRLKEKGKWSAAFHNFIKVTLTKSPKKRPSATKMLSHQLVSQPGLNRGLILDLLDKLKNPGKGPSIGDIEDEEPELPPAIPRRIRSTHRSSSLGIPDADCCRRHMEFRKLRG

Ki, ≤ 0.1 µM:
Cn1cc(-c2n[nH]c3cnc(-c4c(F)cc(C5CCCN5)cc4C(F)(F)F)cc23)cn1 (single isomer, unassigned) [Example 227, 5-(2-Fluoro-4-(pyrrolidin-2-yl)-6-(trifluoromethyl)phenyl)-3-(1-methyl-1H-pyrazol-4-yl)-1H-pyrazolo[3,4-c]pyridine]
COC(=O)NCc1cc(C)c(-c2cc3c(-c4cnn(C)c4)n[nH]c3cn2)c(F)c1 [Example 192, Methyl 3-fluoro-5-methyl-4-(3-(1-methyl-1H-pyrazol-4-yl)-1H-pyrazolo[3,4-c]pyridin-5-yl)benzylcarbamate]
Cn1cc(-c2n[nH]c3cnc(-c4c(F)cc(CNc5ccn(C)n5)cc4F)cc23)cn1 [Example 125, N-(3,5-Difluoro-4-(3-(1-methyl-1H-pyrazol-4-yl)-1H-pyrazolo[3,4-c]pyridin-5-yl)benzyl)-1-methyl-1H-pyrazol-3-amine]
Cc1cc(C2COCCN2)cc(F)c1-c1cc2c(-c3cnn(C)c3)n[nH]c2cn1 (stereo not shown) [Example 234, 3-(3-Fluoro-5-methyl-4-(3-(1-methyl-1H-pyrazol-4-yl)-1H-pyrazolo[3,4-c]pyridin-5-yl)phenyl)morpholine]
CN1CCN(c2ncc(-c3n[nH]c4cnc(-c5c(F)cc(CC#N)cc5F)cc34)cn2)CC1 [Example 211, 2-(3,5-Difluoro-4-(3-(2-(4-methylpiperazin-1-yl)pyrimidin-5-yl)-1H-pyrazolo[3,4-c]pyridin-5-yl)phenyl)acetonitrile]
COc1cc(NC(=O)CN2CCCC2)cc(F)c1-c1cc2c(-c3cnn(C)c3)n[nH]c2cn1 [Example 74, N-(3-Fluoro-5-methoxy-4-(3-(1-methyl-1H-pyrazol-4-yl)-1H-pyrazolo[3,4-c]pyridin-5-yl)phenyl)-2-(pyrrolidin-1-yl)acetamide]
CNCc1cc(C)c(-c2cc3c(-c4ccc(C(=O)NC)cc4)n[nH]c3cn2)c(F)c1 [Example 169, 4-(5-(2-Fluoro-6-methyl-4-((methylamino)methyl)phenyl)-1H-pyrazolo[3,4-c]pyridin-3-yl)-N-methylbenzamide]
CN1CCN(c2ccc(-c3n[nH]c4cnc(-c5c(F)cccc5CN)cc34)cc2)CC1 [Example 195, (3-Fluoro-2-(3-(4-(4-methylpiperazin-1-yl)phenyl)-1H-pyrazolo[3,4-c]pyridin-5-yl)phenyl)methanamine]
Cc1cc(C2CCCN2C)cc(F)c1-c1cc2c(-c3cnn(C)c3)n[nH]c2cn1 (stereo not shown) [Example 173, 5-(2-Fluoro-6-methyl-4-(1-methylpyrrolidin-2-yl)phenyl)-3-(1-methyl-1H-pyrazol-4-yl)-1H-pyrazolo[3,4-c]pyridine]
CC(C)NCc1cc(F)c(-c2cc3c(-c4cnn(C)c4)n[nH]c3cn2)c(F)c1 [Example 123, N-(3,5-Difluoro-4-(3-(1-methyl-1H-pyrazol-4-yl)-1H-pyrazolo[3,4-c]pyridin-5-yl)benzyl)propan-2-amine]
